According to US20070149439A1 (priority 2001, published 2007):
Where “and” joins values, the source holds several entries; their conditions need not be identical. Equal values may be shown once. Read-outs that look alike come from different tables or passages of the source. Where no end group is shown, it is not given here.

Legend:
[1] = test system: cerebral cortical precursors of E15.5 rat embryos; assay: [3H]thymidine incorporation (DNA synthesis) in cerebral hemispheres after transuterine intracerebroventricular injection; type: in vivo; conditions: vs vehicle
Protocol: Transuterine intracerebroventricular injection. Intraventricular injection was done as described. […] Dye enhancement of the ventricles indicated successful injections.
Quantification. Newly synthesized DNA was measured after TCA precipitation. Tissues were homogenized in 10 volumes of distilled water. After reserving aliquots to assess total tissue [^3H]dT uptake, DNA was precipitated with 10% TCA, centrifuged, and washed twice in 10% TCA. Pellets were dissolved and counted along with aliquots by scintillation spectrometry.

PAC1 = biological target: T1, PAC1 (Homo sapiens, UniProt P41586); conditions: higher affinity than PACAP6-38; cited from earlier work
T1 sequence (P41586 21-468): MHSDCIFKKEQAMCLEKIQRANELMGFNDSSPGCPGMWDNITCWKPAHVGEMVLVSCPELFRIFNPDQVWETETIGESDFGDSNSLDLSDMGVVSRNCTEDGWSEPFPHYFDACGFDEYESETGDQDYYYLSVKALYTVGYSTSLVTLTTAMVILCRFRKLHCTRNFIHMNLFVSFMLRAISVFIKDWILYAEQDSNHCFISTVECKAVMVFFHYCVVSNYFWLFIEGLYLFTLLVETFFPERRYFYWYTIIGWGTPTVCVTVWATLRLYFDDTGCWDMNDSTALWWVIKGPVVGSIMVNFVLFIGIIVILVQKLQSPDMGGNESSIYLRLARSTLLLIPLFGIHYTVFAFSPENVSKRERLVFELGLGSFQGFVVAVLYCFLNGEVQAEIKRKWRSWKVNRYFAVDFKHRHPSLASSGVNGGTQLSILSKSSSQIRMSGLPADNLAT

[2] = test system: cortical precursors in culture; conditions: cited from earlier work
[3] = test system: BrdU-labeled precursors in the CP
Source text: (§1) For BrdU immunohistochemistry, E15.5 and E18.5 tissues were fixed in 4% PFA, paraffin-embedded, and sectioned (4 μm) coronally. E20.5 tissues were perfusion-fixed in 2% PFA, cryoprotected, and sectioned at 15 μm. The tissues were immunostained. Then, the tissues were double-labeled with antibodies to neuron specific markers TuJ1 (1:200, Biogenesis, Poole, United Kingdom), tau (1:200, I. Fischer, Med. Coll. Penn.) and MAP2c (1:2000, I. Fischer) or glial markers, vimentin (1:4, Roche) and GFAP (1:1000, Sigma), visualizing with Texas Red for BrdU and FITC for phenotypic markers. TUNEL assay was done according to the manufacturer (Oncor, Gaithersburg, Md.) on sections adjacent to those used for BrdU.
(§2) Transuterine intracerebroventricular injection. Intraventricular injection was done as described. Following anesthesia (ketamine 30 mg per kg/xylazine 3 mg per kg) and laparotomy of E15.5 pregnant dams, 1 μl of vehicle or factors and 0.05% fast green was delivered into the embryonic lateral ventricle through the uterine wall, using drawn capillary pipettes. Dye enhancement of the ventricles indicated successful injections. After closure, dams were injected subcutaneously with markers of DNA synthesis, [^3H]dT (4 μCi/g, NEN) and BrdU (100 μg/g) at 3 h and sacrificed at 4 h. One embryonic hemisphere was assayed for [^3H]dT incorporation and the other for immunohistochemistry.
(§3) For labeling index, the analysis was done in the dorsolateral sector of 3 non-adjacent coronal cortex sections per brain, using a camera lucida (Zeiss, Thornwood, N.Y.) under 400× magnification. For E15.5 sections, BrdU(+) nuclei and total nuclei were scored within a 100 μm×100, μm sector based on the ventricular surface extending to the pial surface. BrdU(+) cells in the CP were counted in centrally located sectors extending 100 μm (E18.5 sections) or 200 μm (E20.5 sections) in the mediolateral dimension.

[4] = test system: VZ precursors of E15.5 rat cortex
Source text: as §1, §2, §3

[5] = injectant volume 1 μl ICV at E15.5, 4 h

Compound: Nc1ncnc2c1ncn2[C@@H]1O[C@@H]2CO[P@@](O)(=S)O[C@H]2[C@H]1O [Rp-cAMPS]
- % Stimulation of DNA synthesis ([3H]dT incorporation) [1, 5]: 28.3 ± 3.1 %

Compound: M65: newly defined PAC1 antagonist derived from sand fly peptide maxadilan
- % Stimulation of DNA synthesis ([3H]dT incorporation) [1, 5]: 14% and 13.4 ± 4.6 %
- % Stimulation of DNA synthesis ([3H]dT incorporation) ([1]; injectant volume 2 μl (twice the dose) ICV at E15.5, 4 h): 20% and 20.1 ± 7.0 %
- affinity for PAC1 relative to PACAP6-38 (PAC1): 6 fold

Compound: Pituitary Adenylate Cyclase-Activating Polypeptide [PACAP]
- effect on proliferative effects of mitogenic IGF-I, bFGF and EGF [2]: inhibited proliferative effects
- decrease of DNA synthesis, [3H]dT incorporation into cerebral hemispheres ([1]; PACAP 10^-5 M, ICV into E15.5 rat lateral ventricle, four hours later): 24%
- less mitotically labeled (BrdU+) cells in the CP ([3]; 3 days (E18.5) after PACAP administration at E15.5): 38%
- less mitotically labeled (BrdU+) cells in the CP ([3]; 5 days (E20.5) after PACAP administration at E15.5): 33%
- Labeling Index (LI), BrdU(+) nuclei in VZ ([4]; 4 hours after ICV injection at E15.5, n=6/group): 26±1.3%
- decrease of Labeling Index / mitotic labeling ([4]; 4 hours after ICV injection at E15.5, vs vehicle): 25% and 26%

Compound: PACAP6-38: specific PAC1 antagonist (FTDSYSRYRKQMAVKKYLAAVLGKRYKQRVKNK; ends and bridges not checked)
- % Stimulation of DNA synthesis ([3H]dT incorporation) [1, 5]: 10±2.2%
